# Experimental data as given in PubChem BioAssay AID602331 (Johns Hopkins Ion Channel Center, 2012).
# The source made the active and inactive calls.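 Rule for the calls: active = compound boosting capsaicin-evoked TRPV1 current more than 1.5 times over the capsaicin response; inactive = the rest.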
# Target: Transient receptor potential cation channel subfamily V member 1 (Homo sapiens) (UniProt Q8NER1)
# Assay: capsaicin-evoked TRPV1 current potentiation – QPatch automated patch clamp, HEK293 cells, confirmation (AID 602331)
# Details: +100 mV, at 10 µM, active compounds read high
# Sequence of Transient receptor potential cation channel subfamily V member 1 (Homo sapiens) (Q8NER1 whole entry, looked up): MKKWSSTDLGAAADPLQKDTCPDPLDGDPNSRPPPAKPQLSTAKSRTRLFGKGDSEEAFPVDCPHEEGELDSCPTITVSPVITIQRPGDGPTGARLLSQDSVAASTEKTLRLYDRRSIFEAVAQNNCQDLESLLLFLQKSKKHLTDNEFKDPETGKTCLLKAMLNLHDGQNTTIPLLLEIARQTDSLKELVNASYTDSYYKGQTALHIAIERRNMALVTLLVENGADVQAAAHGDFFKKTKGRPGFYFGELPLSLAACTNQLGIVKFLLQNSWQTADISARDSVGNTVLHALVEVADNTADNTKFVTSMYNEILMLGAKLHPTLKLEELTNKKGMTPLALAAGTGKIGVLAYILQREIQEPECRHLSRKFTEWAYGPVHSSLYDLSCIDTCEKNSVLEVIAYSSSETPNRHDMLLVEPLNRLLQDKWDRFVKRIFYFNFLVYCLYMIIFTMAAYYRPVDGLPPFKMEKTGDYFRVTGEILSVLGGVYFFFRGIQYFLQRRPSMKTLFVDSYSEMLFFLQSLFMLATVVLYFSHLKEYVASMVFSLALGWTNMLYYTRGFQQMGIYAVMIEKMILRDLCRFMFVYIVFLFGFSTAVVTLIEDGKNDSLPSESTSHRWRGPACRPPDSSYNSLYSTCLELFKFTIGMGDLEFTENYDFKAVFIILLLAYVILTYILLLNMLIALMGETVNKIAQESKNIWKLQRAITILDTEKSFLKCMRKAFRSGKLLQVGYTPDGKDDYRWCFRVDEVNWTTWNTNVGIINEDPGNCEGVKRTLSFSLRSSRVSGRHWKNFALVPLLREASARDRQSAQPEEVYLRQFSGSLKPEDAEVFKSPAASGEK
row,fold potentiation,SMILES
1,0.827 (inactive),O=C(CNc1cccc(S(=O)(=O)N2CCOCC2)c1)Nc1cccc(Br)c1
2,0.906 (inactive),O=c1c(/C=N/OCc2ccc(Cl)cc2Cl)c[nH]n1-c1cccc(Cl)n1
3,0.956 (inactive),CC(=O)Nc1cccc(C(=O)OCC(=O)NCc2cc(C)c(O)c(C)c2)c1
4,0.776 (inactive),CC(C)C(=O)Nc1ccc(C(=O)CN2C(=O)NC3(CCOc4ccccc43)C2=O)cc1 (configuration not stated)
5,1.63,CC1=C(C)/C(=N\OS(=O)(=O)c2ccc(C)cc2)C=CC1=O
6,1.08 (inactive),Cc1csc2c(=O)sc(NC(=O)c3ccc(F)cc3Cl)nc12
7,3.23,O=C(COC(=O)c1ccc2c(c1)C(=O)N(Cc1ccncc1)C2=O)Nc1ccccc1[N+](=O)[O-]
